Several values for one entry are separate records, joined by “and”; a condition that tells them apart may be missing. Equal entries are not always repeated. Inconclusive results and toxic doses are left out. Rule as the data show it: active = T/C of 150% or more; inactive = T/C below 125%.
Tested on: L1210 leukemia ip in BDF1 mice, survival T/C
Assay: NCI In Vivo Anticancer Drug Screen. Data for tumor model L1210 Leukemia (intraperitoneal) in B6D2F1 (BDF1) mice
Settings: endpoint: mean survival time, higher = longer survival
In short: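 Ratio derived from survival: compound-dosed mice over vehicle-dosed mice, all bearing a transplantable tumor.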

[1] = dose: 100.0 mg/kg/injection, schedule: Q04DX002 (ip), vehicle: saline
[2] = dose: 200.0 mg/kg/injection, schedule: Q04DX002 (ip), vehicle: saline
[3] = dose: 400.0 mg/kg/injection, schedule: Q04DX002 (ip), vehicle: saline
[4] = dose: 100.0 mg/kg/injection, schedule: Q01DX009 (ip), vehicle: Klucel (hydroxypropylcellulose) (HPC)
[5] = dose: 200.0 mg/kg/injection, schedule: Q01DX009 (ip), vehicle: Klucel (hydroxypropylcellulose) (HPC)
[6] = dose: 50.0 mg/kg/injection, schedule: Q01DX009 (ip), vehicle: Klucel (hydroxypropylcellulose) (HPC)
[7] = dose: 100.0 mg/kg/injection, schedule: Q01DX001 (ip), vehicle: Klucel (hydroxypropylcellulose) (HPC)
[8] = dose: 200.0 mg/kg/injection, schedule: Q01DX001 (ip), vehicle: Klucel (hydroxypropylcellulose) (HPC)
[9] = dose: 400.0 mg/kg/injection, schedule: Q01DX001 (ip), vehicle: Klucel (hydroxypropylcellulose) (HPC)
[10] = dose: 100.0 mg/kg/injection, schedule: Q04DX003 (ip), vehicle: Klucel (hydroxypropylcellulose) (HPC)
[11] = dose: 200.0 mg/kg/injection, schedule: Q04DX003 (ip), vehicle: Klucel (hydroxypropylcellulose) (HPC)
[12] = dose: 400.0 mg/kg/injection, schedule: Q04DX003 (ip), vehicle: Klucel (hydroxypropylcellulose) (HPC)
[13] = dose: 50.0 mg/kg/injection, schedule: Q01DX001 (ip), vehicle: carboxymethylcellulose (CMC)
[14] = dose: 100.0 mg/kg/injection, schedule: Q01DX001 (ip), vehicle: carboxymethylcellulose (CMC)
[15] = dose: 200.0 mg/kg/injection, schedule: Q01DX001 (ip), vehicle: carboxymethylcellulose (CMC)
[16] = dose: 400.0 mg/kg/injection, schedule: Q01DX001 (ip), vehicle: carboxymethylcellulose (CMC)
[17] = dose: 100.0 mg/kg/injection, schedule: Q01DX001 (ip), vehicle: saline
[18] = dose: 200.0 mg/kg/injection, schedule: Q01DX001 (ip), vehicle: saline
[19] = dose: 400.0 mg/kg/injection, schedule: Q01DX001 (ip), vehicle: saline

Measured: T/C

c1cc2ccc3ccc[n+]4c3c2[n+](c1)CC4
inactive: dose: 75.0 mg/kg/injection, schedule: Q01DX001 (ip), vehicle: saline 103 % of control

C[S+](C)(=O)CCCS(=O)(=O)[O-]
inactive: [1] 99 % of control | [2] 92 % of control | [3] 92 % of control

Cc1nnc(NC(=O)C(Cl)Cl)s1
inactive: dose: 100.0 mg/kg/injection, schedule: Q01DX001 (ip), vehicle: other 96 % of control | [4] 96 % of control | dose: 100.0 mg/kg/injection, schedule: Q04DX003 (ip), vehicle: other 95 % of control | dose: 200.0 mg/kg/injection, schedule: Q01DX001 (ip), vehicle: other 98 % of control | [5] 90 % of control | dose: 200.0 mg/kg/injection, schedule: Q04DX003 (ip), vehicle: other 96 % of control | dose: 400.0 mg/kg/injection, schedule: Q01DX001 (ip), vehicle: other 101 % of control | dose: 400.0 mg/kg/injection, schedule: Q01DX009 (ip), vehicle: Klucel (hydroxypropylcellulose) (HPC) 93 % of control | dose: 400.0 mg/kg/injection, schedule: Q04DX003 (ip), vehicle: other 87 % of control

O=C(OCCO)c1cc(OCCO)nc(Cl)n1
inactive: [6] 100 % of control | [4] 100 % of control | [5] 89 % of control

Nc1nc(-c2ccccc2)c(CCCO)c(=O)[nH]1
inactive: [7] 102 % of control | [8] 102 % of control | [9] 98 % of control

CCOC(=O)NC1=C(N2CC2(C)C)C(=O)C(NC(=O)OCC)=C(N2CC2(C)C)C1=O
inactive: dose: 0.93 mg/kg/injection, schedule: Q01DX009 (ip), vehicle: saline 94 % of control and 110 % of control | dose: 1.87 mg/kg/injection, schedule: Q01DX009 (ip), vehicle: saline 100 % of control and 91 % of control | dose: 3.75 mg/kg/injection, schedule: Q01DX009 (ip), vehicle: saline 96 % of control and 102 % of control | dose: 7.5 mg/kg/injection, schedule: Q01DX009 (ip), vehicle: saline 102 % of control and 107 % of control | dose: 15.0 mg/kg/injection, schedule: Q01DX009 (ip), vehicle: saline 96 % of control and 89 % of control | dose: 30.0 mg/kg/injection, schedule: Q01DX009 (ip), vehicle: saline 100 % of control and 102 % of control

Cc1cc(C)cc(C(O)(C(=O)O)c2ccccc2)c1 (centres undefined)
inactive: dose: 75.0 mg/kg/injection, schedule: Q01DX001 (ip), vehicle: other 103 % of control | dose: 150.0 mg/kg/injection, schedule: Q01DX001 (ip), vehicle: other 103 % of control | dose: 300.0 mg/kg/injection, schedule: Q01DX001 (ip), vehicle: other 106 % of control

Cn1c(C=O)cc(=O)[nH]c1=S
inactive: [6] 92 % of control | [4] 93 % of control | [10] 100 % of control | [5] 93 % of control | [11] 105 % of control | [12] 100 % of control

CC1=CCCC(C)(C)C1C=C1C(=O)NC(=S)NC1=O (centres undefined)
inactive: [6] 92 % of control | [4] 98 % of control | [5] 109 % of control

CC(C)C(NC(=O)CI)C(=O)Nc1ccc(C(=O)O)c(O)c1 (centres undefined)
inactive: [10] 108 % of control | [11] 94 % of control

N=C1c2ccccc2-c2nc3ccccc3c(=O)n21
inactive: [1] 86 % of control | [2] 93 % of control | [3] 89 % of control

Cc1ccc(N2C(=O)CCC2=O)c(C)c1
inactive: [13] 104 % of control | [14] 98 % of control | [15] 102 % of control | [16] 98 % of control

CCC(CC)c1cccc2c(C(CC)CC)cccc12
inactive: [17] 98 % of control | [18] 96 % of control | [19] 96 % of control

Cc1ccc(S(=O)(=O)N(C)c2cc(Cl)c(C#N)c(Cl)c2)cc1
inactive: [7] 96 % of control | [10] 102 % of control | [8] 96 % of control | [11] 93 % of control and 92 % of control | [9] 89 % of control | [12] 97 % of control and 91 % of control

COC(=O)Cc1cccc(=O)c(O)c1C(=O)OC
inactive: [13] 102 % of control | [14] 102 % of control | [15] 104 % of control | [16] 102 % of control

Cc1cc(=O)[nH]c2ccc(Cc3ccc(Cl)cc3)cc12
inactive: [17] 97 % of control | [18] 98 % of control | [19] 95 % of control

Nc1[nH]c(=S)[nH]c(=O)c1N
inactive: dose: 12.0 mg/kg/injection, schedule: Q01DX009 (ip), vehicle: other 102 % of control | dose: 12.0 mg/kg/injection, schedule: Q04DX003 (ip), vehicle: saline 97 % of control | dose: 25.0 mg/kg/injection, schedule: Q01DX009 (ip), vehicle: other 102 % of control | dose: 25.0 mg/kg/injection, schedule: Q04DX003 (ip), vehicle: saline 104 % of control | dose: 50.0 mg/kg/injection, schedule: Q01DX009 (ip), vehicle: other 105 % of control | dose: 50.0 mg/kg/injection, schedule: Q04DX003 (ip), vehicle: saline 118 % of control | dose: 125.0 mg/kg/injection, schedule: Q01DX Z (ip), vehicle: methylcellulose (MC) 106 % of control | dose: 250.0 mg/kg/injection, schedule: Q01DX Z (ip), vehicle: methylcellulose (MC) 117 % of control

CNCCO
inactive: dose: 100.0 mg/kg/injection, schedule: Q01DX009 (ip), vehicle: saline 97 % of control | dose: 100.0 mg/kg/injection, schedule: Q04DX003 (ip), vehicle: saline 96 % of control | dose: 200.0 mg/kg/injection, schedule: Q01DX009 (ip), vehicle: saline 92 % of control | dose: 200.0 mg/kg/injection, schedule: Q04DX003 (ip), vehicle: saline 98 % of control | dose: 400.0 mg/kg/injection, schedule: Q01DX009 (ip), vehicle: saline 97 % of control | dose: 400.0 mg/kg/injection, schedule: Q04DX003 (ip), vehicle: saline 102 % of control

O=C(CCc1ccncc1)Nc1ccccc1
inactive: [10] 100 % of control | [11] 96 % of control | [12] 100 % of control

O=C(O)CCC1CCC(=O)C1 (centres undefined)
inactive: dose: 50.0 mg/kg/injection, schedule: Q04DX002 (ip), vehicle: saline with Tween-80 102 % of control | dose: 100.0 mg/kg/injection, schedule: Q04DX002 (ip), vehicle: saline with Tween-80 106 % of control | dose: 200.0 mg/kg/injection, schedule: Q04DX002 (ip), vehicle: saline with Tween-80 98 % of control | dose: 400.0 mg/kg/injection, schedule: Q04DX002 (ip), vehicle: saline with Tween-80 95 % of control

CC(C)(C)NC(=O)NCc1cccnc1
inactive: dose: 100.0 mg/kg/injection, schedule: Q01DX009 (ip), vehicle: saline sonified 97 % of control | dose: 100.0 mg/kg/injection, schedule: Q04DX003 (ip), vehicle: saline sonified 100 % of control | dose: 200.0 mg/kg/injection, schedule: Q01DX009 (ip), vehicle: saline sonified 100 % of control | dose: 200.0 mg/kg/injection, schedule: Q04DX003 (ip), vehicle: saline sonified 87 % of control | dose: 400.0 mg/kg/injection, schedule: Q01DX009 (ip), vehicle: saline sonified 105 % of control | dose: 400.0 mg/kg/injection, schedule: Q04DX003 (ip), vehicle: saline sonified 94 % of control
